Source: PMC12396409, “Screening and hit evaluation of a microbial metabolite library against the pathogenic Plasmodium falciparum and Toxoplasma gondii parasites” (International Journal for Parasitology: Drugs and Drug …, 2025)
Where two headings read alike, the source gives them in different places. Where a SMILES comes first, the peptide text is derived from it. Bridges are numbered along the chain shown (N, C = ends). [ ]: non-standard residue; d: D form. The star is where a group is joined. dNMeL = CN[C@H](CC(C)C)C(=O)O; X2 = CCCCCCCCCCCC(O)CC(=O)*; Hiv = CC(C)[C@H](O)C(=O)O

Columns and labels:
[1] = system: P. falciparum 3D7 parasites; assay: P. falciparum growth inhibition assay, 1-cycle (72 h treatment), SYBR DNA staining (library screen at 2 μg/mL and dose-response); format: cell-based, Plasmodium falciparum; details: for activity at 2 µg/mL: Plasmodium falciparum
[2] = system: T. gondii RH strain (RH-Tub-eYFP) tachyzoites; assay: microbe, parasite or virus in culture; format: cell-based, Toxoplasma gondii; details: for Tg_72h_%Growth_Rep1 / Tg_72h_%Growth_Rep2 / percent parasite growth at 2 µg/mL: 72 h; for percent parasite growth at 2 µg/mL: Toxoplasma gondii
[3] = system: P. falciparum 3D7 parasites; assay: P. falciparum growth inhibition assay, 2-cycle (120 h treatment), delayed-death screen and dose-response; format: cell-based, Plasmodium falciparum; details: for activity at 2 µg/mL: Plasmodium falciparum
[4] = library screen at 2 μg/mL, 72 h, % growth, replicate 1
[5] = library screen at 2 μg/mL, 72 h, % growth, replicate 2
[6] = library screen at 2 μg/mL, % growth, replicate 1
[7] = library screen at 2 μg/mL, % growth, replicate 2
[8] = library screen at 2 μg/mL, 120 h, % growth, replicate 1
[9] = library screen at 2 μg/mL, 120 h, % growth, replicate 2
[10] = T. gondii, parasite screen 2 μg/mL, % growth, replicate 1, read-out: Tg_72h_%Growth_Rep1
[11] = T. gondii, parasite screen 2 μg/mL, % growth, replicate 2, read-out: Tg_72h_%Growth_Rep2
[12] = P. falciparum, 72 h, screen at 2 μg/mL, replicate 1
[13] = P. falciparum, 72 h, screen at 2 μg/mL, replicate 2
[14] = active against the parasite at 2 μg/mL, no anti-tumour (NS-1) or cytotoxic (fibroblast) activity at 5 μg/mL
[15] = T. gondii, screen at 2 μg/mL, replicate 1
[16] = T. gondii, screen at 2 μg/mL, replicate 2
[17] = P. falciparum, 120 h, screen at 2 μg/mL, replicate 1
[18] = P. falciparum, 120 h, screen at 2 μg/mL, replicate 2
[19] = P. falciparum, 72 h, parasite screen 2 μg/mL, % growth, replicate 1
[20] = P. falciparum, 72 h, parasite screen 2 μg/mL, % growth, replicate 2
[21] = T. gondii, parasite screen 2 μg/mL, % growth, replicate 1
[22] = T. gondii, parasite screen 2 μg/mL, % growth, replicate 2
[23] = P. falciparum, 120 h, parasite screen 2 μg/mL, % growth, replicate 1
[24] = P. falciparum, 120 h, parasite screen 2 μg/mL, % growth, replicate 2
[25] = T. gondii, screen at 2 μg/mL, replicate 1, read-out: Tg_72h_%Growth_Rep1
[26] = T. gondii, screen at 2 μg/mL, replicate 2, read-out: Tg_72h_%Growth_Rep2

## CCCC[C@@H](C)[C@@H](OC(=O)C[C@@H](CC(=O)O)C(=O)O)[C@H](C[C@@H](C)CCCCCC[C@@H](O)C[C@H](O)[C@H](C)N)OC(=O)C[C@@H](CC(=O)O)C(=O)O [Fumonisin B2]
[1]; [4]
  Pf_72h_%Growth_Rep1: 86.29%
[1]; [5]
  Pf_72h_%Growth_Rep2: 114.27%
[2]; [6]
  Tg_72h_%Growth_Rep1: 118.32%
[2]; [7]
  Tg_72h_%Growth_Rep2: 95.97%
[3]; [8]
  Pf_120h_%Growth_Rep1: 88.54%
[3]; [9]
  Pf_120h_%Growth_Rep2: 108.75%

## Cc1cc(O)c2c(c1)O[C@@]1(C)CC[C@H]3C(C)(C)CCC[C@]34CO[C@@H]2[C@H]41 [Siccanin]
[1]; 3D7, P. falciparum, 72 h, parasite screen 2 μg/mL, % growth, replicate 1, read-out: Pf_72h_%Growth_Rep1
  activity at 2 µg/mL: 76%
[1]; 3D7, P. falciparum, 72 h, parasite screen 2 μg/mL, % growth, replicate 2, read-out: Pf_72h_%Growth_Rep2
  activity at 2 µg/mL: 49.5%
[2]; [10]
  percent parasite growth at 2 µg/mL: 99.3%
[2]; [11]
  percent parasite growth at 2 µg/mL: 83.6%
[3]; 3D7, P. falciparum, 120 h, parasite screen 2 μg/mL, % growth, replicate 1, read-out: Pf_120h_%Growth_Rep1
  activity at 2 µg/mL: 73%
[3]; 3D7, P. falciparum, 120 h, parasite screen 2 μg/mL, % growth, replicate 2, read-out: Pf_120h_%Growth_Rep2
  activity at 2 µg/mL: 114%

## CC(=O)O[C@@H]1/C=C\[C@@](C)(O)C(=O)[C@@H](C)C/C=C\[C@H]2[C@H](O)C(C)=C(C)[C@H]3C(Cc4ccccc4)NC(=O)[C@]132 (some centres unmarked) [cytochalasin C]
[1]; [12]
  Pf_72h_%Growth_Rep1: 7.71%
[1]; [13]
  Pf_72h_%Growth_Rep2: 8.08%
[1]; [14]
  selectivity for P. falciparum in the screens: active selectively against P. falciparum and T. gondii
[2]; [15]
  Tg_72h_%Growth_Rep1: 0.57%
[2]; [16]
  Tg_72h_%Growth_Rep2: 15.53%
[2]; [14]
  selectivity for T. gondii in the screens: active selectively against P. falciparum and T. gondii
[3]; [17]
  Pf_120h_%Growth_Rep1: 12.52%
[3]; [18]
  Pf_120h_%Growth_Rep2: 10.45%

## CC(C)C[C@@H]1NC(=O)[C@H](C(C)C)NC(=O)[C@H](C(C)C)OC(=O)[C@@H](CC(C)C)N(C)C(=O)[C@@H](C(C)C)NC(=O)[C@H](C(C)C)OC1=O [Sporidesmolide I] (cyclo([Hiv]VL[Hiv][dV][dNMeL]))
[1]; [19]
  Pf_72h_%Growth_Rep1: 86.99%
[1]; [20]
  Pf_72h_%Growth_Rep2: 89.18%
[2]; [21]
  Tg_72h_%Growth_Rep1: 147.37%
[2]; [22]
  Tg_72h_%Growth_Rep2: 92.68%
[3]; [23]
  Pf_120h_%Growth_Rep1: 103.89%
[3]; [24]
  Pf_120h_%Growth_Rep2: 100.78%

## CC(=O)N[C@H](COC(C)=O)[C@H](O)c1ccc([N+](=O)[O-])cc1 [Corynecin IV]
[1]; [12]
  Pf_72h_%Growth_Rep1: 87.87%
[1]; [13]
  Pf_72h_%Growth_Rep2: 87.15%
[2]; [15]
  Tg_72h_%Growth_Rep1: 146.78%
[2]; [16]
  Tg_72h_%Growth_Rep2: 106.28%
[3]; [17]
  Pf_120h_%Growth_Rep1: 80.18%
[3]; [18]
  Pf_120h_%Growth_Rep2: 96.02%

## CCCCCCCCCCCC(O)CC(=O)NC(CC(C)C)C(=O)NC(CCC(=O)O)C(=O)NC1C(=O)NC(C(C)CC)C(=O)NC(CC(C)C)C(=O)NC(CO)C(=O)NC(CC(C)C)C(=O)NC(CC(C)C)C(=O)NC(CO)C(=O)NC(C(C)C)C(=O)OC1C (centres unmarked) [BIA-O1430] (X2-LETILSLLSV; ester 3-C; configuration not given here)
[1]; P. falciparum 3D7, 72 h, parasite screen at 2 μg/mL, % growth, replicate 1
  Pf_72h_%Growth_Rep1: 78.47%
[1]; P. falciparum 3D7, 72 h, parasite screen at 2 μg/mL, % growth, replicate 2
  Pf_72h_%Growth_Rep2: 76.87%
[2]; T. gondii, parasite screen at 2 μg/mL, % growth, replicate 1
  Tg_72h_%Growth_Rep1: 121.77%
[2]; T. gondii, parasite screen at 2 μg/mL, % growth, replicate 2
  Tg_72h_%Growth_Rep2: 92.49%
[3]; P. falciparum 3D7, 120 h, parasite screen at 2 μg/mL, % growth, replicate 1
  Pf_120h_%Growth_Rep1: 85.46%
[3]; P. falciparum 3D7, 120 h, parasite screen at 2 μg/mL, % growth, replicate 2
  Pf_120h_%Growth_Rep2: 72.71%

## CC[C@H]1CC2CN3CCc4c([nH]c5ccc(OC)cc45)[C@](C(=O)OC)(C2)[C@H]13 (stereo in doubt) [Voacangine]
[1]; 3D7, P. falciparum, 72 h, screen at 2 μg/mL, replicate 1, read-out: Pf_72h_%Growth_Rep1
  activity at 2 µg/mL: 86.5%
[1]; 3D7, P. falciparum, 72 h, screen at 2 μg/mL, replicate 2, read-out: Pf_72h_%Growth_Rep2
  activity at 2 µg/mL: 89.9%
[2]; [25]
  percent parasite growth at 2 µg/mL: 89.9%
[2]; [26]
  percent parasite growth at 2 µg/mL: 96.7%
[3]; 3D7, P. falciparum, 120 h, screen at 2 μg/mL, replicate 1, read-out: Pf_120h_%Growth_Rep1
  activity at 2 µg/mL: 164%
[3]; 3D7, P. falciparum, 120 h, screen at 2 μg/mL, replicate 2, read-out: Pf_120h_%Growth_Rep2
  activity at 2 µg/mL: 91%

## CC(C)=CCc1cc(C=C2OC(=O)C(c3cc(CC=C(C)C)c(O)cc3O)=C2O)ccc1O [Aspulvinone O]
[1]; [4]
  Pf_72h_%Growth_Rep1: 82.88%
[1]; [5]
  Pf_72h_%Growth_Rep2: 86.74%
[2]; [6]
  Tg_72h_%Growth_Rep1: 90.15%
[2]; [7]
  Tg_72h_%Growth_Rep2: 99.19%
[3]; [8]
  Pf_120h_%Growth_Rep1: 144.60%
[3]; [9]
  Pf_120h_%Growth_Rep2: 98.61%

## CC(C)=C[C@H]1C[C@H](C)[C@]2(CC[C@]3(C)C[C@@H]4C(C)=CC(=O)[C@@H]4/C(C=O)=C\C[C@H]32)O1 [Anhydroophiobolin A]
[1]; [4]
  Pf_72h_%Growth_Rep1: 9.46%
[1]; [5]
  Pf_72h_%Growth_Rep2: 6.48%
[2]; [6]
  Tg_72h_%Growth_Rep1: 154.62%
[2]; [7]
  Tg_72h_%Growth_Rep2: 91.26%
[3]; [8]
  Pf_120h_%Growth_Rep1: 0.81%
[3]; [9]
  Pf_120h_%Growth_Rep2: -1.29%

## C=C1CC[C@H](OC(C)=O)C(C)(C)[C@@H]1CC/C(C)=C/CC/C(C)=C/Cc1c(O)cc(C)oc1=O [Sartorypyrone A]
[1]; [19]
  Pf_72h_%Growth_Rep1: 32.17%
[1]; [20]
  Pf_72h_%Growth_Rep2: 81.37%
[2]; [21]
  Tg_72h_%Growth_Rep1: 82.97%
[2]; [22]
  Tg_72h_%Growth_Rep2: 82.11%
[3]; [23]
  Pf_120h_%Growth_Rep1: 16.39%
[3]; [24]
  Pf_120h_%Growth_Rep2: 52.54%

## COc1c(O)cc2cc(C)oc(=O)c2c1O [Reticulol]
[1]; [19]
  Pf_72h_%Growth_Rep1: 1.99%
[1]; [20]
  Pf_72h_%Growth_Rep2: 0.81%
[2]; [21]
  Tg_72h_%Growth_Rep1: 97.11%
[2]; [22]
  Tg_72h_%Growth_Rep2: 97.69%
[3]; [23]
  Pf_120h_%Growth_Rep1: -0.78%
[3]; [24]
  Pf_120h_%Growth_Rep2: 4.83%

## O=C(N[C@H](CO)[C@H](O)c1ccc([N+](=O)[O-])cc1)C(Cl)Cl [Chloramphenicol]
[1]; 3D7, 72 h, P. falciparum, 72 h, screen at 2 μg/mL, replicate 1, read-out: Pf_72h_%Growth_Rep1
  activity at 2 µg/mL: 85.8%
[1]; 3D7, 72 h, P. falciparum, 72 h, screen at 2 μg/mL, replicate 2, read-out: Pf_72h_%Growth_Rep2
  activity at 2 µg/mL: 84.9%
[2]; [25]
  percent parasite growth at 2 µg/mL: 86.7%
[2]; [26]
  percent parasite growth at 2 µg/mL: 85.3%
[3]; 3D7, 120 h, P. falciparum, 120 h, screen at 2 μg/mL, replicate 1, read-out: Pf_120h_%Growth_Rep1
  activity at 2 µg/mL: 117%
[3]; 3D7, 120 h, P. falciparum, 120 h, screen at 2 μg/mL, replicate 2, read-out: Pf_120h_%Growth_Rep2
  activity at 2 µg/mL: 64.9%

## CSC[S@+]([O-])C[C@H](CO)NC(=O)/C=C/c1c(C)[nH]c(=O)[nH]c1=O [Sparsomycin]
[1]; 3D7, 72 h, P. falciparum, 72 h, parasite screen 2 μg/mL, % growth, replicate 1, read-out: Pf_72h_%Growth_Rep1
  activity at 2 µg/mL: 4.3%
[1]; 3D7, 72 h, P. falciparum, 72 h, parasite screen 2 μg/mL, % growth, replicate 2, read-out: Pf_72h_%Growth_Rep2
  activity at 2 µg/mL: -1%
[2]; [10]
  percent parasite growth at 2 µg/mL: 2.81%
[2]; [11]
  percent parasite growth at 2 µg/mL: 27.9%
[3]; 3D7, 120 h, P. falciparum, 120 h, parasite screen 2 μg/mL, % growth, replicate 1, read-out: Pf_120h_%Growth_Rep1
  activity at 2 µg/mL: 10.1%
[3]; 3D7, 120 h, P. falciparum, 120 h, parasite screen 2 μg/mL, % growth, replicate 2, read-out: Pf_120h_%Growth_Rep2
  activity at 2 µg/mL: -13.2%

## CCCCCCCCCCCCCCCC(=O)C1=C(O)C(CO)OC1=O (centres unmarked) [TAN 1364B]
[1]; [19]
  Pf_72h_%Growth_Rep1: 72.25%
[1]; [20]
  Pf_72h_%Growth_Rep2: 85.83%
[2]; [21]
  Tg_72h_%Growth_Rep1: 101.38%
[2]; [22]
  Tg_72h_%Growth_Rep2: 92.62%
[3]; [23]
  Pf_120h_%Growth_Rep1: 149.02%
[3]; [24]
  Pf_120h_%Growth_Rep2: 76.93%
